Tests used:
[1] = molecular target: T1, rNav1.8 (Rattus norvegicus, UniProt Q62968); assay: Patch clamp, intracellular KIFMK: block of current density (Fig 6E,F); type: cell-based; settings: Fig 6F
T1 construct: expressed in transfected cells; host or cells: ND7/23

[2] = molecular target: T2, hNav1.7 (Homo sapiens, UniProt Q15858); type: cell-based
T2 construct: expressed in transfected cells; host or cells: HEK293T
T2 sequence (Q15858 whole entry): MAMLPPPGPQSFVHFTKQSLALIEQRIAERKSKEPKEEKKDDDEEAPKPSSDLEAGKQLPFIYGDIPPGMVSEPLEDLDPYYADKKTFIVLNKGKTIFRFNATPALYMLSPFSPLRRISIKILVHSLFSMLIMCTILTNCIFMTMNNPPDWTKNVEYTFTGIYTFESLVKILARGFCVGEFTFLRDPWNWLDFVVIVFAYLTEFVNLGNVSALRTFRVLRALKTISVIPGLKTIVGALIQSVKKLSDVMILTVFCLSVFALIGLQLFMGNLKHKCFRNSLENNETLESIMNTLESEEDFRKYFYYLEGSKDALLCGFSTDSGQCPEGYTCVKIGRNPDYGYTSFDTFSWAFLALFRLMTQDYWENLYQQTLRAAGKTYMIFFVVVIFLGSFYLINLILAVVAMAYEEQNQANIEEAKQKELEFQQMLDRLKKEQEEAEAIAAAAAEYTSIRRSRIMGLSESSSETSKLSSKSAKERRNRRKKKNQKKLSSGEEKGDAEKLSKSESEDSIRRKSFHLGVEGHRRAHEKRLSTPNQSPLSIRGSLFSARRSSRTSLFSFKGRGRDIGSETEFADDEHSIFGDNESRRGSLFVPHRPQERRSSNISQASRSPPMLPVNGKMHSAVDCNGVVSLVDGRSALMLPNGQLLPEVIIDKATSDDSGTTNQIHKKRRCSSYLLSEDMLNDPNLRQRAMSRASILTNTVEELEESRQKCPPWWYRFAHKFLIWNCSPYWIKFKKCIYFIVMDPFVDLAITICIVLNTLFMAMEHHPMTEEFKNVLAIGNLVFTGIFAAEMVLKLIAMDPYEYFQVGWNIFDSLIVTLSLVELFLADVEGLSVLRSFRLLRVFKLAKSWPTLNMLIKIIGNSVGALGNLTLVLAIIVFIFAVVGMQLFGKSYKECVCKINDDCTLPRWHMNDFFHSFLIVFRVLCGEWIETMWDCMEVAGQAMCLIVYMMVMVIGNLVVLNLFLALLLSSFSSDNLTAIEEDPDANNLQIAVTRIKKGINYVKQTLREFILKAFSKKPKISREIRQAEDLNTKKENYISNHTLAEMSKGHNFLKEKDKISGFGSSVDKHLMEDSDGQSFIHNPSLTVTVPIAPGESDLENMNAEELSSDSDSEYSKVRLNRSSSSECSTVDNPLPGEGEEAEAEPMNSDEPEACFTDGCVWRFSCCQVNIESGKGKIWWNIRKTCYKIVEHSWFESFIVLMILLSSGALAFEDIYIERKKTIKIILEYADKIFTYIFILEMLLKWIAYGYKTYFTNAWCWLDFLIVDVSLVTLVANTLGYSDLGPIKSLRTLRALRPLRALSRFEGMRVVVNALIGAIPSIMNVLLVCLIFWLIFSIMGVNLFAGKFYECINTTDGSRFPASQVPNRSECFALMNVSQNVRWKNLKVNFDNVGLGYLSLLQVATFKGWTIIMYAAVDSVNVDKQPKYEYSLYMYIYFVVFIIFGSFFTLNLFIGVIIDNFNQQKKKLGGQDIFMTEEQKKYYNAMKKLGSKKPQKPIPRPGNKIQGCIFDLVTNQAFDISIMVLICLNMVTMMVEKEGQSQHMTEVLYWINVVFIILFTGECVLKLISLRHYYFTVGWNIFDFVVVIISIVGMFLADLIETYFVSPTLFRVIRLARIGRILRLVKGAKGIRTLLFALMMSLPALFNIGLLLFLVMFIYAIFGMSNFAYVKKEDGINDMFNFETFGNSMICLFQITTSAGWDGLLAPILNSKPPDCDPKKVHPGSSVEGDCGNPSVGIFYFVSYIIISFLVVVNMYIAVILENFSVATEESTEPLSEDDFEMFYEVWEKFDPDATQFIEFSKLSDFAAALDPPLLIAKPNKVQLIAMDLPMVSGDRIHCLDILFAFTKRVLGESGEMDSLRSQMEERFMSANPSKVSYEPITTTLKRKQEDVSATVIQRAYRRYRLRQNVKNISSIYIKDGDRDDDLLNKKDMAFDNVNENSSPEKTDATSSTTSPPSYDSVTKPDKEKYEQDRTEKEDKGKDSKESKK
T2 sequence (Q07699 19-218, further chain): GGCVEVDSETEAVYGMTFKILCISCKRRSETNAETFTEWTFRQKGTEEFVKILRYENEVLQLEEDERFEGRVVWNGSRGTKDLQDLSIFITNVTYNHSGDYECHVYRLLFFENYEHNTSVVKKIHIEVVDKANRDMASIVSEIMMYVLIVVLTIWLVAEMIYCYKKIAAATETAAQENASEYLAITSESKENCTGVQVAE
T2 sequence (O60939 30-215, further chain): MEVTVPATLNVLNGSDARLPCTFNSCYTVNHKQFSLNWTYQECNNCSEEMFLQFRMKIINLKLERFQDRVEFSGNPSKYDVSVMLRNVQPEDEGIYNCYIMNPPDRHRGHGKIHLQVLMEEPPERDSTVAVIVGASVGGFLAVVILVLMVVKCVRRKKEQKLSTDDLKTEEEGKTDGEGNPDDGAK

T1 sequence (Q62968 whole entry): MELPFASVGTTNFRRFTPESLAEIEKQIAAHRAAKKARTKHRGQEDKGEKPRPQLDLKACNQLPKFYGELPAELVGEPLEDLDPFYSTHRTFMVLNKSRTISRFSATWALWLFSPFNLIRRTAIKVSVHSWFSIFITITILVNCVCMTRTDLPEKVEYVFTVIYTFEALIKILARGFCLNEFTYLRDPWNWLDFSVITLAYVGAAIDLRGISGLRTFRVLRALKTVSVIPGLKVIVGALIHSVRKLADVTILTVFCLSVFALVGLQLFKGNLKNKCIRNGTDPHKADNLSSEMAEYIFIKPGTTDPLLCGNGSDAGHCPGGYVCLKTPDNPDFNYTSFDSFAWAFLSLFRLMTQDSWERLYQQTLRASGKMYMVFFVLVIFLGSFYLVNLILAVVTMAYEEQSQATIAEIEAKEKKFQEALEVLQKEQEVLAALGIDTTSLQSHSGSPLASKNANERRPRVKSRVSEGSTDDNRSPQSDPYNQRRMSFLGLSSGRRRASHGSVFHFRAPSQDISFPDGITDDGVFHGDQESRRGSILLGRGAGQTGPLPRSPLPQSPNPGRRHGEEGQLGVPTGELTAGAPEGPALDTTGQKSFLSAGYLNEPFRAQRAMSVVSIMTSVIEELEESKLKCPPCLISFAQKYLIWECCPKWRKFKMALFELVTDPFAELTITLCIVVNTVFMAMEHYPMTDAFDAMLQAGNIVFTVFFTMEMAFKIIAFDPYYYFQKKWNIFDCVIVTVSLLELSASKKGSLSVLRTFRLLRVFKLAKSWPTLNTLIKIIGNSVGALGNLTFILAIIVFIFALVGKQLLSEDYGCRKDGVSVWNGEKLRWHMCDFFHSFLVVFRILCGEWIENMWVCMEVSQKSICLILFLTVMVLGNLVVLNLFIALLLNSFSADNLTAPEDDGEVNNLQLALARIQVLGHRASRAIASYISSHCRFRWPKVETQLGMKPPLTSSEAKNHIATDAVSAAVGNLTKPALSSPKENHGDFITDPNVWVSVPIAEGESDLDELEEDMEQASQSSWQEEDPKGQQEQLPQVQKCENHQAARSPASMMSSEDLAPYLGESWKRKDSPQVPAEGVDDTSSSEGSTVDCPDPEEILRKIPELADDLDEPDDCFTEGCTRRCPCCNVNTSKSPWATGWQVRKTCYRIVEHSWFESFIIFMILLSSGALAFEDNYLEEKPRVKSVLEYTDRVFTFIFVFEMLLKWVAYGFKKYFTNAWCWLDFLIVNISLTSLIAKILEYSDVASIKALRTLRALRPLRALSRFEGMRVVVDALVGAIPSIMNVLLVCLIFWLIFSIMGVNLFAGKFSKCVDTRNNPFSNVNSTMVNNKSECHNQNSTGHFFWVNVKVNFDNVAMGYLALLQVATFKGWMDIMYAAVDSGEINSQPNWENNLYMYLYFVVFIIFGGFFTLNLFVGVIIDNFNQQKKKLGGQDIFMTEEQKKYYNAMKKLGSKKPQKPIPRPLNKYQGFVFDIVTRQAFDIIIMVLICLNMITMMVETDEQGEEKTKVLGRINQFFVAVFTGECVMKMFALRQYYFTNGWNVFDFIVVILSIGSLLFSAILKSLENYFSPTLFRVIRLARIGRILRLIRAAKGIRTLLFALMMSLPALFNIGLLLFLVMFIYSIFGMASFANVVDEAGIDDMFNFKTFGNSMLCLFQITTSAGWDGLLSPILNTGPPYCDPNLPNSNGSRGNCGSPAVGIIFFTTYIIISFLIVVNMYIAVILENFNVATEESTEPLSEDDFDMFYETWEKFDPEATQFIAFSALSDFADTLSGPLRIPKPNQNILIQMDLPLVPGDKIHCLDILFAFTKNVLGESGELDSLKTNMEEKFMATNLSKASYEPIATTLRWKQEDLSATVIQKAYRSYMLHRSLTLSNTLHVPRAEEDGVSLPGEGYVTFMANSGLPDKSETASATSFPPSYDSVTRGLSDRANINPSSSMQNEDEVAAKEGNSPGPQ

Row | Compound | IC50 for rNav1.4 and hNav1.5 relative to that for rNav1.8 [1] | inhibition of rpTx1-evoked persistent currents [2]
1 | CC[C@H](C)[C@H](NC(=O)[C@@H](N)CCCCN)C(=O)N[C@@H](Cc1ccccc1)C(=O)N[C@@H](CCSC)C(=O)N[C@@H](CCCCN)C(=O)O [KIFMK] | two time smaller | –
2 | NC1=N[C@H](O)[C@H]2[C@H]3O[C@]4(O)O[C@@H]([C@@H](O)[C@@]2(N1)[C@@H]4O)[C@]3(O)CO [TTX, tetrodotoxin] | – | completely inhibited

Reference: PMC12130229, “Inherent fast inactivation particle of Nav channels as a new binding site for a neurotoxin” (The EMBO Journal, 2025)
